Results on one molecule are retold here after patent US20040192869A1, “Polyvalent imprinted polymer and process of preparation thereof” (priority 2003, published 2004).

The test addresses lysozyme (Gallus gallus, UniProt P00698). Kind of test: Relative inhibition of lysozyme (I50), UV spectrophotometric method with Micrococcus lysodeikticus as substrate. The note with it: copolymers prepared in absence of lysozyme, and NAG. The test is classed as biochemical. The procedure: This example describes estimation of inhibition concentration (I50) for lysozyme imprinted polyvalent copolymers and polyvalent copolymers prepared in the absence of lysozymne by UV spectrophotometric method. Micrococcus lysodeikticus is a substrate for the enzyme lysozyme. Relative binding of copolYmers was estimated by using a procedure reported by Neuberger and Wilson (1967). 1.5% w/v stock solutions of non imprinted copolymer was prepared in 0.0066 M phosphate buffer pH 6.2 containing 0.0154 M sodium chloride and 0.008 M sodium azide. One milliliter of stock solution containing different copolymer concentration was mixed with 1.6 ml of 78 μg/ml of Micrococcus lysodeikticus in a 3-ml capacity glass cuvette. The mixture was incubated for 5 minutes at 20° C. To this mixture 0.1 ml of lysozyme (27 μg/ml) was added and mixed thoroughly. The relative absorbance at 450 nm (Δ450) was recorded for 30 seconds. A blank reading without the copolymer was noted and the change in the absorbance per second was calculated. Then relative inhibition was calculated.

Sequence of lysozyme (P00698 19-147): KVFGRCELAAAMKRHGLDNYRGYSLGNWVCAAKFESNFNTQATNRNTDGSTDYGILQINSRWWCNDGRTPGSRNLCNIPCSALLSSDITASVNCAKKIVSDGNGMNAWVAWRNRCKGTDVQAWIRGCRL

In turn, `CC(=O)N[C@H]1C(O)O[C@H](CO)[C@@H](O)[C@@H]1O` (stereo partly drawn) [NAG, N-Acetyl Glucosamine] returned an I max of 55.29. In addition, under “concentration at maximum inhibition”, the “I max” value was 92000 nM. The IC50 (read-out: Relative Inhibition Iso (I50)) was found to be 74 µM.
